Calls of active or inactive are those of the source. The rule behind the calls is not given here.

Experimental findings from ChEMBL document CHEMBL1143028, “Preparation of cyclic 2',3'-carbamate derivatives of erythromycin macrolide antibiotics” (Bioorg Med Chem, 2007) are described below.

The test system of one test is Staphylococcus aureus. As to the kind of experiment: Antibacterial activity against Staphylococcus aureus ATCC 25923 at […]. It is filed as functional, organism-based.
Another test concerns Escherichia coli. In words: Antibacterial activity against Escherichia coli ATCC 25922 at […]. Format: functional, organism-based.

Regarding `C=CCOC(=O)O[C@H]1[C@H](C)O[C@@H](O[C@H]2[C@H](C)[C@@H](O[C@@H]3O[C@H](C)C[C@H]4[C@H]3OC(=O)N4C)[C@](C)(OC)C[C@@H](C)C(=O)[C@H](C)[C@@H]3OC(=O)O[C@]3(C)[C@@H](CC)OC(=O)[C@@H]2C)C[C@@]1(C)OC`, the outcome in the test with Staphylococcus aureus and with Escherichia coli was inactive.

`CC[C@H]1OC(=O)[C@H](C)[C@@H](O)[C@H](C)[C@@H](O[C@@H]2O[C@H](C)C[C@H]3[C@H]2OC(=O)N3C)[C@](C)(OC)C[C@@H](C)C(=O)[C@H](C)[C@@H]2OC(=O)O[C@]12C`: the result in the test on Staphylococcus aureus and in the test with Escherichia coli was inactive.

For the compound `CC[C@H]1OC(=O)[C@H](C)[C@@H](O[C@H]2C[C@@](C)(OC)[C@@H](O)[C@H](C)O2)[C@H](C)[C@@H](O[C@@H]2O[C@H](C)C[C@H]3[C@H]2OC(=O)N3C)[C@](C)(OC)C[C@@H](C)C(=O)/C(C)=C/[C@]1(C)O`, the outcome with Staphylococcus aureus and in the test with Escherichia coli was inactive.

`C=CCOC(=O)O[C@H]1[C@H](C)[C@@H](O[C@@H]2O[C@H](C)C[C@H]3[C@H]2OC(=O)N3C)[C@](C)(OC)C[C@@H](C)C(=O)[C@H](C)[C@@H]2OC(=O)O[C@]2(C)[C@@H](CC)OC(=O)[C@@H]1C`: the result in the test with Staphylococcus aureus and in the test with Escherichia coli was inactive.

Turning to `CC[C@H]1OC(=O)[C@H](C)C(=O)[C@H](C)[C@@H](O[C@@H]2O[C@H](C)C[C@H]3[C@H]2OC(=O)N3C)[C@](C)(OC)C[C@@H](C)C(=O)[C@H](C)[C@@H]2OC(=O)O[C@]12C`, the result in the test on Staphylococcus aureus and with Escherichia coli was inactive.

For `CC[C@H]1OC(=O)[C@H](C)[C@@H](O[C@H]2C[C@@](C)(OC)[C@@H](O)[C@H](C)O2)[C@H](C)[C@@H](O[C@@H]2O[C@H](C)C[C@H]3[C@H]2OC(=O)N3C)[C@](C)(OC)C[C@@H](C)C(=O)[C@H](C)[C@@H]2OC(=O)O[C@]12C`, the result in the test on Staphylococcus aureus and in the test on Escherichia coli was inactive.

`CC[C@H]1OC(=O)[C@H](C)C(=O)[C@H](C)[C@@H](O[C@@H]2O[C@H](C)C[C@H]3[C@H]2OC(=O)N3C)[C@](C)(OC)C[C@@H](C)C(=O)[C@H](C)[C@@H]2N(c3ccc(N4CCOCC4)c(F)c3)C(=O)O[C@@]21C`: the outcome with Staphylococcus aureus and in the test with Escherichia coli was inactive.
